Reference: PMC8549013 (Neuropharmacology, 2021)

How the values were obtained:
hDAT = conditions: same technique, ref Steele and Eltit, 2019; cited from earlier work
wt hDAT = wt hDAT (Homo sapiens, UniProt Q01959); test: MAT-Ca2+ assay: inhibition of DA-induced Ca2+ signals; type: cell-based; conditions: DA 10 μM; for pIC50 ± SEM: ~35°C, Table 2
wt dDAT = wt dDAT (Drosophila melanogaster, UniProt Q7K4Y6); test: as above; type: cell-based; conditions: DA 10 μM; for pIC50 ± SEM: bottom of fit constrained to zero for MDPV
[1] = target: A117S/D121G/P323V dDAT (triple dDAT mutant) (Drosophila melanogaster, UniProt Q7K4Y6, A117S/D121G/P323V); test: as above; type: cell-based
[2] = target: A117S/D121G/P323V/F318C dDAT (quadruple dDAT mutant) (Drosophila melanogaster, UniProt Q7K4Y6, A117S/D121G/F318C/P323V); test: as above; type: cell-based
NET = conditions: rat brain synaptosomes; ref Gannon et al., 2018; cited from earlier work
P323V dDAT mutant = P323V dDAT mutant (Drosophila melanogaster, UniProt Q7K4Y6, P323V); test: MAT-Ca2+ assay: inhibition of DA-induced Ca2+ signals; type: cell-based
A117S dDAT mutant = A117S dDAT mutant (Drosophila melanogaster, UniProt Q7K4Y6, A117S); test: as above; type: cell-based
F318C dDAT mutant = F318C dDAT mutant (Drosophila melanogaster, UniProt Q7K4Y6, F318C); test: as above; type: cell-based
D121G dDAT mutant = D121G dDAT mutant (Drosophila melanogaster, UniProt Q7K4Y6, D121G); test: as above; type: cell-based
A117S/D121G dDAT mutant = A117S/D121G dDAT mutant (Drosophila melanogaster, UniProt Q7K4Y6, A117S/D121G); test: as above; type: cell-based
[3] = tested on: human dopamine transporter (hDAT); conditions: ref Baumann et al., 2013; Cameron et al., 2013b; Steele and Eltit, 2019; cited from earlier work
[4] = Table 2 dataset, with DA pre-pulse
[5] = Table 1 dataset, without DA pre-pulse

SMILES | IC50 (wt hDAT) [µM] | pIC50 ± SEM (wt hDAT) [M] | IC50 (wt dDAT) [µM] | pIC50 ± SEM (wt dDAT) | IC50 [1, 4] [µM] | pIC50 ± SEM [1, 4] [M] | IC50 [2, 4] [µM] | pIC50 ± SEM [2, 4] [M] | weaker inhibiting uptake at NET than at DAT (NET) | IC50 ([1]; Table 2 dataset) [µM] | also measured
NCCc1ccc(O)c(O)c1 [DA, dopamine] |  |  |  |  |  |  |  |  |  |  | pEC50 of DA to produce Ca2+ signals (hDAT): 5.89 ± 0.04
CC(C(=O)c1ccc2c(c1)OCO2)N1CCCC1 (stereo not drawn) [MDPPP, 3,4-methylenedioxy-α-pyrrolidinopropiophenone] | 3.42 | 5.47 ± 0.02 | > 30 | Inactive | 16 | 4.80 ± 0.02 | 13 | 4.89 ± 0.01 | ~ 5 fold |  | 
CCCC(C(=O)c1ccc2c(c1)OCO2)N1CCCC1 (stereo not drawn) [MDPV, 3,4-Methylenedioxypyrovalerone] | 0.034 | 7.47 ± 0.01 | 27.4 | 4.56 ± 0.02 M | 1.21 | 5.92 ± 0.02 | 0.251 | 6.60 ± 0.04 | ~ 4 fold | 1.21 | IC50 (P323V dDAT mutant; P323V dDAT): 9.69 µM; pIC50 ± SEM (P323V dDAT mutant; P323V dDAT): 5.01 ± 0.03 M; improvement in potency vs wt dDAT (P323V dDAT mutant; P323V dDAT vs wt dDAT): ~ 3 fold; IC50 (A117S dDAT mutant; A117S dDAT): 8.39 µM; pIC50 ± SEM (A117S dDAT mutant; A117S dDAT): 5.08 ± 0.04 M; improvement in potency vs wt dDAT (A117S dDAT mutant; A117S dDAT vs wt dDAT): ~ 3 fold; IC50 (F318C dDAT mutant; F318C dDAT): 8.24 µM; pIC50 ± SEM (F318C dDAT mutant; F318C dDAT): 5.08 ± 0.02 M; improvement in potency vs wt dDAT (F318C dDAT mutant; F318C dDAT vs wt dDAT): ~ 3 fold; IC50 (D121G dDAT mutant): 4.65 µM; pIC50 ± SEM (D121G dDAT mutant): 5.33 ± 0.04 M; IC50 (A117S/D121G dDAT mutant): 2.21 µM; pIC50 ± SEM (A117S/D121G dDAT mutant): 5.66 ± 0.04 M; IC50 ([1]; Table 1 dataset): 1.18 µM; IC50 [1, 5]: 1.18 µM; pIC50 ± SEM [1, 5]: 5.93 ± 0.02 M; IC50 ([2]; Table 1 dataset): 0.25 µM; IC50 [2, 5]: 0.253 µM; pIC50 ± SEM [2, 5]: 6.60 ± 0.03 M; more potent than cocaine in blocking DA uptake through DAT [3]: ~ 50 fold
CCCC(C(=O)c1ccccc1)N1CCCC1 (stereo not drawn) [α-PVP, α-pyrrolidinovalerophenone] | 0.051 | 7.29 ± 0.01 | 20.7 | 4.68 ± 0.03 M | 1.53 | 5.82 ± 0.03 | 1.09 | 5.96 ± 0.03 | equipotent | 1.53 | IC50 ([2]; Table 2 dataset): 1.09 µM
